Laboratory results from patent publication US20100112030A1, “ROLE OF HEDGEHOG SIGNALING IN ATHEROSCLEROSIS AND CARDIOVASCULAR DISEASE” (The Regents of the University of California, priority 2007, published 2010).

How the values were obtained:
Type in all cases: cell-based
[1] = system: pluripotent mesenchymal cells derived from the bone marrow; test: Oxysterol-induced osteoblastic differentiation of pluripotent mesenchymal cells; settings: hedgehog pathway inhibitor added to oxysterol-treated cells
Text: These mesenchymal cells, which serve as osteoprogenitors during skeletal development and bone remodeling, are induced to undergo osteoblastic differentiation when treated with osteoinductive oxysterols.

[2] = system: Ptch and Gli1 expression in human aortic smooth muscle cells (HASMC); test: Hh target gene (Ptch, Gli1) mRNA expression in HASMC by Q-RT-PCR; settings: 48 hours of treatment
Method: (§1) Treatment of HASMC with Shh was examined to determine if Shh induces the expression of target genes, Ptch and Gli. […] This difference may be cell-type specific or may be due to heterogeneity in vascular smooth muscle cell populations and their differentiation state. Ptch and Gli1 mRNA expression was induced when using 3 μg/ml of rmShh after 48 hours of treatment (1.6 fold and 1.8 fold, respectively, compared to control vehicle-treated cells as assessed by Q-RT-PCR analysis). This is consistent with studies in which 3.5 μg/ml of Shh was used to activate rat vascular SMC. It is likely that local Shh concentrations may reach very high levels in the microenvironment of the vessel wall, since, as described herein, substantial immunostaining for Shh in atherosclerotic lesions was observed. Cells within the atherosclerotic lesion may also become more susceptible to Shh over time due to the inflammatory insults associated with that environment. […] Dose response and time course experiments can determine the extent and kinetics of Hh target gene expression in aortic SMC, as well as in other vascular cells, using techniques known to a person of ordinary skill.

[3] = system: Gli1 expression in mouse aortic smooth muscle cells (MASMC); test: Hh target gene (Gli1) expression in MASMC; settings: 48 hours of treatment
Method: as §1

Structure (SMILES) | oxysterol-induced osteoblastic differentiation of cells [1] | increase in Gli1 expression [2] [fold] | increase in Gli1 expression [3] [fold]
CC1=C2C[C@H]3[C@@H](CC=C4C[C@@H](O)CC[C@@]43C)[C@@H]2CC[C@]12O[C@@H]1C[C@H](C)CN[C@H]1[C@H]2C [cyclopamine] | completely inhibited | – | –
CC(C)CCC[C@](C)(O)[C@H]1CC[C@H]2[C@@H]3CC=C4C[C@@H](O)CC[C@]4(C)[C@H]3CC[C@@]21C [20(S)-hydroxycholesterol] | – | 2 | 2
